Three compounds from patent US20260007133A1, “HERBICIDAL COMPOSITION COMPRISING AZINE COMPOUNDS” (BASF SE, priority 2022, published 2026) can be followed below.

Assay type in all cases: in vivo
The test system of test [1] is Setaria viridis. Kind of test: Greenhouse pre-emergence (PRE) herbicidal test on SETVI. The settings on record: PRE. In outline:
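Damage was rated visually on a 0 to 100 scale at 20 days after treatment, where 0 meant normal growth and 100 meant no emergence or complete kill of above-ground parts. Compounds were applied in water to freshly sown loamy-sand pots.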

Test [2] concerns Alopecurus myosuroides. Nature of the test: Greenhouse pre-emergence (PRE) herbicidal test on ALOMY. The conditions noted are these: PRE; for % activity: ALOMY, 18 DAT. In a few lines:
(§1)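 Visual 0–100 rating at 20 days after treatment; 0 = normal growth, 100 = no emergence or complete kill of shoots. Pre-emergent application to seeded pots of loamy sand (~3.0% humus), species-dependent temperature 10-25° C or 20-35° C.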

Test [3] relates to Geranium pusillum. Nature of the test: Greenhouse post-emergence (POST) herbicidal test on GERPU. The conditions noted are these: POST; for % activity: GERPU, 18 DAT. In a few lines:
(§2)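 Visual damage rating on a 0–100 scale, 0 meaning normal growth and 100 complete kill of above-ground parts, taken 20 days after treatment. Spray applied post-emergence to plants 3–15 cm tall in loamy sand with approximately 3.0% humus.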

Test [4] deals with Abutilon theophrasti. Nature of the test: Greenhouse pre-emergence (PRE) herbicidal test on ABUTH. The conditions noted are these: PRE; for % activity: ABUTH, 18 DAT. In a few lines:
as §1

Test [5] relates to Lolium multiflorum. Kind of test: Greenhouse pre-emergence (PRE) herbicidal test on LOLMU. The conditions noted are these: PRE; for % activity: LOLMU, 18 DAT. In a few lines: as §1
The subject of test [6] is Echinochloa crus-galli. Kind of test: Greenhouse pre-emergence (PRE) herbicidal test on ECHCG. The conditions noted are these: PRE, ECHCG, 18 DAT.
The test system of test [7] is Echinochloa crus-galli. Kind of test: Greenhouse post-emergence (POST) herbicidal test on ECHCG. The conditions noted are these: POST, ECHCG, 18 DAT. In outline:
as §2

Test [8] concerns Euphorbia heterophylla. Kind of test: Greenhouse post-emergence (POST) herbicidal test on EPHHL. The conditions noted are these: POST. In a few lines:
as §2

In test [9] the test system is Abutilon theophrasti. Kind of test: Greenhouse post-emergence (POST) herbicidal test on ABUTH. The conditions noted are these: POST; for % activity: ABUTH, 18 DAT. In outline: as §2
Test [10] concerns Amaranthus retroflexus. Kind of test: Greenhouse post-emergence (POST) herbicidal test on AMARE. The conditions noted are these: POST. In a few lines: as §2
The subject of test [11] is Commelina benghalensis. Nature of the test: Greenhouse pre-emergence (PRE) herbicidal test on COMBE. The conditions noted are these: PRE; for % activity: COMBE, 18 DAT. In outline: as §1
The subject of test [12] is Digitaria sanguinalis. Nature of the test: Greenhouse post-emergence (POST) herbicidal test on DIGSA. The conditions noted are these: POST, DIGSA, 18 DAT. In outline: as §2
In test [13] the test system is Euphorbia heterophylla. Kind of test: Greenhouse pre-emergence (PRE) herbicidal test on EPHHL. The settings on record: PRE; for % activity: EPHHL, 18 DAT. In a few lines: as §1
The test system of test [14] is Amaranthus retroflexus. Kind of test: Greenhouse pre-emergence (PRE) herbicidal test on AMARE. The conditions noted are these: PRE; for % activity: AMARE, 18 DAT. In a few lines:
as §1

Test [15] deals with Ipomoea hederacea. Kind of test: Greenhouse post-emergence (POST) herbicidal test on IPOHE. The settings on record: Ipomoea hederacea, post-emergence, 480 h, POST, 20 DAT. On the procedure:
The culture containers used were plastic pots containing loamy sand with approximately 3.0% of humus as substrate. The seeds of the test plants were sown separately for each species.
For the post-emergence treatment, the test plants were grown to a plant height of from 3 to 15 cm, depending on the plant habit, and only then treated with the active compounds which had been suspended or emulsified in water. To this end, the test plants were either sown directly, and grown in the same containers, or they were first grown separately as seedlings and transplanted into the test containers a few days prior to treatment.
Depending on the species, the plants were kept at 10-25° C. and 20-35° C., respectively.
The test period extended over 2 to 4 weeks. During this time, the plants were tended and their response to the individual treatments was evaluated.
Evaluation was carried out using a scale from 0 to 100. 100 means no emergence of the plants, or complete destruction of at least the above-ground parts, and 0 means no damage or normal course of growth. A good herbicidal activity is given at values of at least 70, and very good herbicidal activity is given at values of at least 85.
If not stated differently, the respective components A and B, and if appropriate, C were formulated as a 5% by weight strength emulsion concentrate and, with addition of the amount of solvent system, introduced into the spray liquor used for applying the active compound.
As indicated application was either post emergent (POST) at the respective growth stage (GS) of the weed (BBCH code), or pre-emergent (PRE).
Assessment was 20 days after treatment (DAT).

Test [16] relates to Ambrosia artemisiifolia. Nature of the test: Greenhouse pre-emergence (PRE) herbicidal test on AMBEL. The conditions noted are these: Ambrosia artemisiifolia, pre-emergence, 480 h, PRE, 20 DAT.

Turning to `Cc1ccc2c(c1)[C@H](Nc1nc(N)nc(C(C)F)n1)[C@@H](C)C2` (stereo partly shown) [Indaziflam, indaziflam], the “% activity” value in [1] (SETVI, Indaziflam solo 1 gai/ha, 18 DAT) was found to be 40%; in [2] (Indaziflam solo 1 gai/ha), 10%; in [2] (Indaziflam solo 4 gai/ha), 75%; in test [3] (Indaziflam solo 4 gai/ha), 50%; in test [3] (Indaziflam solo 8 gai/ha) it was 50%; in test [4] (Indaziflam solo 1 gai/ha), 0%. Also, the “% activity” value in [4] (Indaziflam solo 4 gai/ha) is 25%; in test [5] (Indaziflam solo 1 gai/ha) it was 10%; in test [5] (Indaziflam solo 2 gai/ha), 10%; in test [5] (Indaziflam solo 4 gai/ha), 40%; in test [6] (Indaziflam solo 1 gai/ha) it was 30%; in [6] (Indaziflam solo 4 gai/ha), 85%. The “% activity” value in test [6] (Indaziflam solo 8 gai/ha) worked out at 80%; in test [7] (Indaziflam solo 1 gai/ha), 0%; in test [7] (Indaziflam solo 2 gai/ha), 0%; in test [7] (Indaziflam solo 4 gai/ha), 20%; in test [7] (Indaziflam solo 8 gai/ha) it was 60%; in [8] (EPHHL, Indaziflam solo 4 gai/ha, 18 DAT), 40%. For the same compound, the “% activity” value in [9] (Indaziflam solo 2 gai/ha) was determined as 15%; in [9] (Indaziflam solo 4 gai/ha), 30%; in test [10] (AMARE, Indaziflam solo 1 gai/ha, 18 DAT), 65%; in test [11] (Indaziflam solo 1 gai/ha) it was 20%; in test [11] (Indaziflam solo 2 gai/ha) it was 10%; in test [11] (Indaziflam solo 8 gai/ha), 40%. For the same compound, the “% activity” value worked out at 0% in test [12] (Indaziflam solo 1 gai/ha); 5% in test [12] (Indaziflam solo 2 gai/ha); 20% in [12] (Indaziflam solo 8 gai/ha); 10% in [13] (Indaziflam solo 1 gai/ha); 5% in [13] (Indaziflam solo 4 gai/ha); 10% in test [14] (Indaziflam solo 1 gai/ha). Besides, the “% activity” value in test [14] (Indaziflam solo 4 gai/ha) turned out to be 50%.

What is called pest or weed control is the degree to which the test organism was suppressed or injured, in per cent. Low readings indicate weak suppression, high ones strong suppression. For `CCNc1nc(Cl)nc(NC(C)(C)C)n1` [Terbutylazine], the pest or weed control at 15.6 g/ha in test [2] (Alopecurus myosuroides, pre-emergence, 480 h, 15.6 gai/ha, 20 DAT) is 0%; in test [4] (Abutilon theophrasti, pre-emergence, 480 h, 15.6 gai/ha, 20 DAT), 0%; in [5] (Lolium multiflorum, pre-emergence, 480 h, 15.6 gai/ha, 20 DAT), 0%; in test [15] (15.6 gai/ha), 0%; in test [11] (Commelina benghalensis, pre-emergence, 480 h, 15.6 gai/ha, 20 DAT), 0%; in [16] (15.6 gai/ha) it was 0%. In addition, the pest or weed control at 62.5 g/ha in [2] (Alopecurus myosuroides, pre-emergence, 480 h, 62.5 gai/ha, 20 DAT) stood at 0%; in [4] (Abutilon theophrasti, pre-emergence, 480 h, 62.5 gai/ha, 20 DAT) it was 0%; in test [9] (Abutilon theophrasti, post-emergence, 480 h, 62.5 gai/ha, 20 DAT) it was 0%; in test [10] (Amaranthus retroflexus, post-emergence, 480 h, 62.5 gai/ha, 20 DAT), 60%; in test [11] (Commelina benghalensis, pre-emergence, 480 h, 62.5 gai/ha, 20 DAT), 0%; in [13] (Euphorbia heterophylla, pre-emergence, 480 h, 62.5 gai/ha, 20 DAT) it was 0%. Also, the pest or weed control at 62.5 g/ha in test [14] (Amaranthus retroflexus, pre-emergence, 480 h, 62.5 gai/ha, 20 DAT) is 0%.

Consider `CC(C)N(C(=O)SCC(Cl)=C(Cl)Cl)C(C)C` [Tri-Allate, Tri-allate], for which the pest or weed control at 600 g/ha in test [1] (Setaria viridis, pre-emergence, 480 h, 600 gai/ha, 20 DAT) was found to be 0%; in test [3] (Geranium pusillum, post-emergence, 480 h, 600 gai/ha, 20 DAT) it was 10%; in test [4] (Abutilon theophrasti, pre-emergence, 480 h, 600 gai/ha, 20 DAT) it was 10%; in test [5] (Lolium multiflorum, pre-emergence, 480 h, 600 gai/ha, 20 DAT) it was 0%; in test [15] (600 gai/ha), 10%; in [8] (Euphorbia heterophylla, post-emergence, 480 h, 600 gai/ha, 20 DAT) it was 10%. Further, the pest or weed control at 600 g/ha in test [10] (Amaranthus retroflexus, post-emergence, 480 h, 600 gai/ha, 20 DAT) was found to be 25%; in test [11] (Commelina benghalensis, pre-emergence, 480 h, 600 gai/ha, 20 DAT), 0%; in test [13] (Euphorbia heterophylla, pre-emergence, 480 h, 600 gai/ha, 20 DAT) it was 10%; in [16] (600 gai/ha), 10%; in test [14] (Amaranthus retroflexus, pre-emergence, 480 h, 600 gai/ha, 20 DAT), 10%. The pest or weed control at 1200 g/ha in test [2] (Alopecurus myosuroides, pre-emergence, 480 h, 1200 gai/ha, 20 DAT) stood at 0%; in test [5] (Lolium multiflorum, pre-emergence, 480 h, 1200 gai/ha, 20 DAT), 10%; in test [15] (1200 gai/ha), 0%; in test [8] (Euphorbia heterophylla, post-emergence, 480 h, 1200 gai/ha, 20 DAT), 10%; in [9] (Abutilon theophrasti, post-emergence, 480 h, 1200 gai/ha, 20 DAT) it was 0%; in test [10] (Amaranthus retroflexus, post-emergence, 480 h, 1200 gai/ha, 20 DAT) it was 45%. Besides, the pest or weed control at 1200 g/ha was 10% in [13] (Euphorbia heterophylla, pre-emergence, 480 h, 1200 gai/ha, 20 DAT); 25% in [16] (1200 gai/ha); 10% in test [14] (Amaranthus retroflexus, pre-emergence, 480 h, 1200 gai/ha, 20 DAT).
